Patent US12551563B2, “ERK5 degraders as therapeutics in cancer and inflammatory diseases” (DANA-FARBER CANCER INSTITUTE, INC., priority 2019, dated 2026)

Experiments:
Format in all cases: cell-based
[1] = biological target: T1, ERK5 (Homo sapiens, UniProt Q13164); assay: Western blot, rescue of compound 7-induced ERK5 degradation by pretreatment in MIA Paca-2 cells; set-up: immunoblotted with primary antibodies against ERK5 (Cell Signaling®); endogenous in cells; host or cells: MIA PaCa-2; conditions: for Rescue of ERK5 degradation induced by bispecific compound 7: then 1 μM compound 7 for 24 h (FIG. 3)
T1 sequence (Q13164 whole entry): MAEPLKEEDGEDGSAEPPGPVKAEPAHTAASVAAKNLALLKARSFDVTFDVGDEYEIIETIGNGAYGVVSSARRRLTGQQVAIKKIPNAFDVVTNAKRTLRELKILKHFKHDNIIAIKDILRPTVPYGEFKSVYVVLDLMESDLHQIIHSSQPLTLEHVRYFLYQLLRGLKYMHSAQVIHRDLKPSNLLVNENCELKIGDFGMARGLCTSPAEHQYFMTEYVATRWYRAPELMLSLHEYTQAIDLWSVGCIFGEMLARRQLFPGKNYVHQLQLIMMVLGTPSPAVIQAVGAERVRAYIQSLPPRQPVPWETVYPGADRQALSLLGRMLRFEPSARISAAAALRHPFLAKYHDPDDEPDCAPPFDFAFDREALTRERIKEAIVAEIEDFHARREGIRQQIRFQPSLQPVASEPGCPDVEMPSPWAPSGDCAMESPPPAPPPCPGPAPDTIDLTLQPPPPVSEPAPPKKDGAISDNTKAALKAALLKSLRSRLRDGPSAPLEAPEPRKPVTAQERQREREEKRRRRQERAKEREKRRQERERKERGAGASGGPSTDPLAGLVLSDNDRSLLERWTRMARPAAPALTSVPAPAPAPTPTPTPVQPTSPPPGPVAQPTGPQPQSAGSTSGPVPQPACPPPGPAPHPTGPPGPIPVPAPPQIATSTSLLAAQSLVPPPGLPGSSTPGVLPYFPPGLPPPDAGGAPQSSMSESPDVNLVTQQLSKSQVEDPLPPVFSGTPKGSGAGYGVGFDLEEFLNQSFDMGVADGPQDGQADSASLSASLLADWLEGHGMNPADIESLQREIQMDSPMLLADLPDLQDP
Experimental: (§1) MIA Paca-2 cells were treated with 0, 0.1, 1, or 10 μM of bispecific compounds 3-7 for 24 hours. Cells were then lysed in RIPA buffer (Sigma®) containing protease/phosphatase inhibitor cocktail (Roche®). The protein concentrations were measured by bicinchoninic acid assay (BCA) analysis (Pierce™). Equal amounts of protein were resolved by 4-12% Tris-Base gels (Invitrogen™), and then transferred to the Immuno-Blot PVDF membrane (BioRad), and immunoblotted with primary antibodies against ERK5 (Cell Signaling®) and […] (Cell Signaling®), and then immunoblotted with IRDye®800-labeled goat anti-rabbit IgG and IRDye®800-labeled goat anti-mouse IgG (LI-COR) secondary antibodies. The membranes were detected on Odyssey® CLx system.
MIA Paca-2 cells were pretreated with 10 μM XMD17-109 (the parental compound and known ERK5 inhibitor; available from, e.g., MedChemExpress, Cat. No. HY-15665, Monmouth Junction, N.J.), 10 μM DGY-05-180 (VHL ligand), 0.1 μM Bortezomib (a proteasome inhibitor; available from, e.g., Millipore Sigma, Cat. No. 179324-69-7, Burlington, Mass.), and 1 μM MLN4924 (a neddylation inhibitor; available from, e.g., MedChemExpress, Cat. No. HY-70062, Monmouth Junction, N.J.), for 2 h, and then treated with 1 μM bispecific compound 7 for 24 h. Cells were lysed and immunoblotted as described above with antibodies to ERK5 and GAPDH (Cell Signaling®).

[2] = biological target: T1, ERK5; assay: Western blot of ERK5 degradation in A375 cells; set-up: immunoblotted with primary antibodies against ERK5 (Cell Signaling®); endogenous in cells; host or cells: A375; conditions: 24 hours, at 1 and 10 μM (FIG. 2)
Experimental: as §1
A375 cells were treated with 0, 0.1, 1, or 10 μM of bispecific compounds 3, 4, and 7-9 for 24 hours. Cells were lysed and immunoblotted as described above with antibodies to ERK5 and β-Actin.

[3] = biological target: T1, ERK5; assay: Western blot of ERK5 degradation in MIA Paca-2 cells; set-up: immunoblotted with primary antibodies against ERK5 (Cell Signaling®); endogenous in cells; host or cells: MIA PaCa-2; conditions: 24 hours, at 1 and 10 μM (FIG. 1)
Experimental: as §1

[4] = biological target: T2, BRD4 (Homo sapiens, UniProt O60885); assay: Western blot of BRD4 degradation in MOLT4 cells (dose curve); conditions: 5 hours, 0.1, 0.25, 0.5, or 1 μM (FIG. 5)
T2 construct: endogenous in cells; host or cells: MOLT4
Experimental: as §1
(§2) MOLT4 cells were treated with 0.1, 0.25, 0.5, or 1 μM of bispecific compounds 18 and 23 for 5 hours. Cells were lysed and immunoblotted as described above with antibodies to ERK5, BRD4, and β-Actin.

[5] = biological target: T1, ERK5; assay: Western blot of ERK5 degradation in MOLT4 cells (0.1 or 1 μM); set-up: immunoblotted with primary antibodies against ERK5 (Cell Signaling®); endogenous in cells; host or cells: MOLT4; conditions: 5 hours, at 0.1 and 1 μM (FIG. 4)
Experimental: as §1
MOLT4 cells were treated with 0.1 or 1 μM of bispecific compounds 15-20 for 5 hours. Cells were lysed and immunoblotted as described above with antibodies to ERK5 and β-Actin.

[6] = biological target: T1, ERK5; assay: Western blot of ERK5 degradation in MOLT4 cells (dose curve); set-up: immunoblotted with primary antibodies against ERK5 (Cell Signaling®); endogenous in cells; host or cells: MOLT4; conditions: 5 hours, 0.1, 0.25, 0.5, or 1 μM (FIG. 5)
Experimental: as §1, §2

CC(C)C[C@H](NC(=O)[C@H](Cc1ccccc1)NC(=O)c1cnccn1)B(O)O [Bortezomib]
Rescue of ERK5 degradation induced by bispecific compound 7 ([1]; pretreated 2 h with 0.1 μM): rescued the ERK5 degradation induced by bispecific compound 7

NS(=O)(=O)OC[C@@H]1C[C@@H](n2ccc3c(N[C@H]4CCc5ccccc54)ncnc32)C[C@@H]1O [MLN4924]
Rescue of ERK5 degradation induced by bispecific compound 7 ([1]; pretreated 2 h with 1 μM): rescued the ERK5 degradation induced by bispecific compound 7

CCOc1cc(C(=O)N2CCC(N3CCN(C)CC3)CC2)ccc1Nc1ncc2c(n1)N(C1CCCC1)c1ccccc1C(=O)N2C [XMD17-109]
Rescue of ERK5 degradation induced by bispecific compound 7 ([1]; pretreated 2 h with 10 μM): rescued the ERK5 degradation induced by bispecific compound 7

Cc1ncsc1-c1ccc([C@H](C)NC(=O)[C@@H]2C[C@@H](O)CN2C(=O)[C@@H](NC(=O)CCCCCCCNC(=O)c2ccc(Nc3ncc4c(n3)N(C3CCCC3)c3ccccc3C(=O)N4C)cc2)C(C)(C)C)cc1 [compound 7, (2S,4R)-1-((S)-2-(8-(4-((11-cyclopentyl-5-methyl-6-oxo-6,11-dihydro-5H-benzo[e]pyrimido[5,4-b][1,4]diazepin-2-yl)amino)benzamido)octanamido)-3,3-dimethylbutanoyl)-4-hydroxy-N-((S)-1-(4-(4-methylthiazol-5-yl)phenyl)ethyl)pyrrolidine-2-carboxamide]
ERK5 degradation (Western blot) [2]: induced the degradation of ERK5 | ERK5 degradation (Western blot) [3]: induced the degradation of ERK5 | Dependence of ERK5 degradation (mechanism) ([1]; 1 μM for 24 h after pretreatment with competitors/inhibitors (FIG. 3)): both ligand and proteasome dependent

Cc1ncsc1-c1ccc([C@H](C)NC(=O)[C@@H]2C[C@@H](O)CN2C(=O)[C@@H](NC(=O)CCCCCN2CCN(C(=O)c3ccc(Nc4ncc5c(n4)N(C4CCCC4)c4ccccc4C(=O)N5C)cc3)CC2)C(C)(C)C)cc1 [compound 18, (2S,4R)-1-((S)-2-(6-(4-(4-((11-cyclopentyl-5-methyl-6-oxo-6,11-dihydro-5H-benzo[e]pyrimido[5,4-b][1,4]diazepin-2-yl)amino)benzoyl)piperazin-1-yl)hexanamido)-3,3-dimethylbutanoyl)-4-hydroxy-N-((S)-1-(4-(4-methylthiazol-5-yl)phenyl)ethyl)pyrrolidine-2-carboxamide]
BRD4 degradation (Western blot) [4]: induced the degradation of ERK5 and BRD4 | ERK5 degradation (Western blot) [5]: induced the degradation of ERK5 | ERK5 degradation (Western blot) [6]: induced the degradation of ERK5

CCC(C)N1c2ccccc2C(=O)N(C)c2cnc(Cc3ccc(C(=O)N4CCN(CCCCCC(=O)N[C@H](C(=O)N5C[C@H](O)C[C@H]5C(=O)N[C@@H](C)c5ccc(-c6scnc6C)cc5)C(C)(C)C)CC4)cc3)nc21 (stereo partly drawn) [compound 23, (2S,4R)-1-((2S)-2-(6-(4-(4-((11-(sec-butyl)-5-methyl-6-oxo-6,11-dihydro-5H-benzo[e]pyrimido[5,4-b][1,4]diazepin-2-yl)methyl)benzoyl)piperazin-1-yl)hexanamido)-3,3-dimethylbutanoyl)-4-hydroxy-N-((S)-1-(4-(4-methylthiazol-5-yl)phenyl)ethyl)pyrrolidine-2-carboxamide]
ERK5 degradation (Western blot) [6]: induced the degradation of ERK5
